Measured values taken from patent US20210230548A1, “NATURAL KILLER CELLS ENGINEERED TO EXPRESS CHIMERIC ANTIGEN RECEPTORS WITH IMMUNE CHECKPOINT BLOCKADE” (Board of Regents, The University of Texas System, priority 2018, published 2021).

Assays:
[1] = test system: iC9/CAR.19/IL-15 CB-NK cells; assay: Suicide gene validation in vivo in Raji tumor-bearing mice; design: species or system mouse; conditions: dimerizer on days 7 and 9 post NK infusion, sacrifice day 12; both control and CISH KO cells
Method: (§1) Activation of suicide gene in vitro and validation in vivo: The small-molecule dimerizer AP1903 (10 nM), was added to CB-NK cell cultures for 4 h. The elimination of transduced cells was evaluated by Annexin-V/Live dead staining. The efficacy of the suicide gene was also tested in vivo by treating tumor-bearing mice that had received iC9/CAR.19/IL-15+ NK cells (control or CISH KO) with two doses of AP1903 (50 μg each) intraperitoneally, 2 days apart on days 7 and 9. Two other groups of mice (control and CISH KO) served as control without AP1903 treatment. All mice were sacrificed on day 12, and blood and organs (Liver, spleen and bone marrow) were collected, processed and flow cytometry was performed to determine CAR-NK fraction and viability.

[2] = test system: iC9/CAR.19/IL-15 NK cells; assay: Activation of suicide gene in vitro with dimerizer AP1903; assay type: cell-based
Method: as §1

CISH locus = assay: GUIDE-seq off-target identification in HEK293 cells constitutively expressing Cas9; assay type: cell-based; conditions: GuideSeq
From the text: Off-target Identification: The GUIDE-seq method was employed for unbiased discovery of off-target editing events (Tsai et al., 2015). In this study, HEK293 cells that constitutively express the S pyogenes Cas9 nuclease (“HEK293-Cas9” cells) were the source of Cas9. Alt-R® gRNA complexes were formed by combining Alt-R tracrRNA and Alt-R crRNA XT at a 1:1 molar ratio. gRNA complexes were delivered by nucleofection using the Amaxa™ Nucleofector™ 96-well Shuttle™ System (Lonza, Basel, Switzerland). For each nucleofection, 3.5×10^5 HEK293-Cas9 cells were washed with 1×PBS, resuspended in 20 μL solution SF (Lonza) and combined with 10 μM gRNA along with 0.5 μM GUIDE-seq dsDNA donor fragment. This mixture was transferred into one well of a Nucleocuvette™ Plate (Lonza) and electroporated using protocol 96-DS-150. DNA was extracted 72 hrs after electroporation using the GeneJET Genomic DNA purification kit (Thermo Fisher Scientific). NGS library preparation, sequencing, and operation of the GUIDE-seq software was performed as previously described except that Needleman-Wunch alignment was incorporated (Tsai et al., 2016).

Q: How did the “reduction in iC9/CAR.19/IL-15 CB-NK cells in blood and tissues (liver, spleen, bone marrow)” value [1] turn out when `CC[C@H](C(=O)N1CCCC[C@H]1C(=O)O[C@H](CCc1ccc(OC)c(OC)c1)c1cccc(OCC(=O)NCCNC(=O)COc2cccc([C@@H](CCc3ccc(OC)c(OC)c3)OC(=O)[C@@H]3CCCCN3C(=O)[C@@H](CC)c3cc(OC)c(OC)c(OC)c3)c2)c1)c1cc(OC)c(OC)c(OC)c1` [AP1903] was run?
A: striking reduction

Q: What about the “time to apoptosis of transduced NK cells” value ([2]; 10 nM) of the same molecule?
A: ≤ 4 h

Q: What about the “apoptosis of transduced NK cells” value ([2]; 10 nM added to cultures) of the same molecule?
A: induced apoptosis of transduced NK cells

Q: With “crRNA2: crRNA targeting CISH exon 4, sequence TGTACAGCAGTGGCTGGTGG (SEQ ID NO:2) (listed as DNA, chemistry not given here)” as the molecule, how does the “off-target sites / events” value (CISH locus) read?
A: even higher frequencies of off-target events
